25 molecules from patent publication US9023398B2, “Method for improving the aqueous solubility of poorly-soluble substances” (Kabushiki Kaisha Sangi, priority 2009, dated 2015) can be followed below.

How the values of series [1] were obtained: The rotation number of the stirrer was 120 rpm, and all of the tests were conducted in a thermostat at 37±0.5° C. Two types of test solutions, namely, distilled water and 2nd fluid for disintegration test (pH 6.8) of the Japanese Pharmacopoeia were used. As such 2nd fluid for disintegration test of the Japanese Pharmacopoeia, a solution prepared by diluting the 10-fold concentration solution of Kanto Kagaku Co., Ltd. with distilled water was used.
A comparative test was carried out in the same manner as that described above with the exception that a poorly-soluble substance or the like was used in an amount equal to that of a substance with improved aqueous solubility, instead of the substance with improved aqueous solubility.
1 mL of the solution was sampled in an Eppendorf centrifuge tube, 1, 3, 10, 30, 60, 180 and 360 minutes after initiation of the test. The thus sampled solution was centrifuged at 12,000 rpm for 5 minutes. […] In the case of the comparative test, the poorly-soluble substance or the like, which had not been dissolved in the solution, was removed. An aliquot of this supernatant was immediately frozen. The frozen sample was freeze-dried, and it was then used as a sample in the measurement of the amount of the substance with improved aqueous solubility, which had been dissolved in the test solution. The dissolved poorly-soluble substance was measured mainly using a dual wavelength absorption photometer.
Moreover, a comparative test was carried out using silica fume instead of the calcium compound microparticles. Specifically, a coating treatment was carried out according to the same method as that described in the above section “6-1.

Series [2] is described as follows: Dissolution test of poorly-soluble substances using distilled water. Format: physicochemical.
Series [3] is described as follows: Dissolution test of poorly-soluble substances using 2nd fluid for disintegration test (pH 6.8) of the Japanese Pharmacopoeia. It counts as physicochemical.
[4] abbreviates: 2nd fluid for disintegration test, elution time 3 min.
Where [5] appears, read: 2nd fluid for disintegration test, elution time 30 min.
The mark [6] stands for this setting: after dissolution test for 360 minutes, distilled water, 37±0.5° C.
The mark [7] stands for this setting: after dissolution test for 360 minutes, Second disintegration test medium (pH 6.8), 37±0.5° C.
Setting [8] is: 2nd fluid for disintegration test, elution time 10 min.
[9] abbreviates: 2nd fluid for disintegration test, elution time 360 min.

Structures can show the parent of a compound that is named as a salt.

On to `O=C(O)c1cc(/N=N/c2ccc(S(=O)(=O)Nc3ccccn3)cc2)ccc1O` [salazosulfapyridine], for which, in series [1], the solubility-improving effect entry is listed as “a solubility-improving effect was obtained”.

As to `CC(=O)O[C@H]1C(=O)[C@@]2(C)[C@H]([C@H](OC(=O)c3ccccc3)[C@]3(O)C[C@H](OC(=O)[C@H](O)[C@@H](NC(=O)c4ccccc4)c4ccccc4)C(C)=C1C3(C)C)[C@]1(OC(C)=O)CO[C@@H]1C[C@@H]2O` [paclitaxel], in series [1], the solubility-improving effect result is recorded as “a solubility-improving effect was obtained”.

In the case of `C[C@]12CC[C@@H]3c4ccc(OC(=O)c5ccccc5)cc4CC[C@H]3[C@@H]1CC[C@@H]2O` [estradiol benzoate], the solubility-improving effect entry in series [1] is on record as “a solubility-improving effect was obtained”.

Regarding `CCCCC(=O)O[C@H]1CC[C@H]2[C@@H]3CCc4cc(O)ccc4[C@H]3CC[C@]12C` [estradiol valerate], the solubility-improving effect result in series [1] is recorded as “a solubility-improving effect was obtained”.

Turning to `CC1CNc2c(cccc2S(=O)(=O)N[C@@H](CCCNC(=N)N)C(=O)N2CC[C@@H](C)C[C@@H]2C(=O)O)C1` (stereo partly shown) [argatroban], the solubility-improving effect entry in series [1] is recorded as “a solubility-improving effect was obtained”.

Consider `CCCCCC(=O)O[C@]1(C(C)=O)CC[C@H]2[C@@H]3CCC4=CC(=O)CC[C@]4(C)[C@H]3CC[C@@]21C` [hydroxyprogesterone caproate], for which, in series [1], the solubility-improving effect result is listed as “a solubility-improving effect was obtained”.

`CO/N=C(\C(=O)N[C@@H]1C(=O)N2C(C(=O)O)=C(CSc3nnnn3C)CS[C@H]12)c1csc(N)n1` [cefmenoxime hydrochloride]: in series [1], the solubility-improving effect result is listed as “a solubility-improving effect was obtained”.

In the case of `C=CC[C@@H]1/C=C(\C)C[C@H](C)C[C@H](OC)[C@H]2O[C@@](O)(C(=O)C(=O)N3CCCC[C@H]3C(=O)O[C@H](/C(C)=C/[C@@H]3CC[C@@H](O)[C@H](OC)C3)[C@H](C)[C@@H](O)CC1=O)[C@H](C)C[C@@H]2OC` [tacrolimus hydrate], the solubility-improving effect entry in series [1] was “a solubility-improving effect was obtained”.

For the molecule `CC(=O)O[C@@]12CO[C@@H]1C[C@H](O)[C@@]1(C)C(=O)[C@H](O)C3=C(C)[C@@H](OC(=O)[C@H](O)[C@@H](NC(=O)OC(C)(C)C)c4ccccc4)C[C@@](O)([C@@H](OC(=O)c4ccccc4)[C@H]21)C3(C)C` [docetaxel hydrate], in series [1], the solubility-improving effect entry is given as “a solubility-improving effect was obtained”.

As for `CC(C)Cc1ccc(C(C)C(=O)O)cc1` (stereo not shown) [ibuprofen], in series [1], the solubility-improving effect entry is recorded as “a solubility-improving effect was obtained”.

As to `C[C@@H]1[C@H](O)[C@@H](C)/C=C/C=C/CC/C=C/C=C/C=C/C=C/C(O[C@H]2O[C@H](C)[C@@H](O)[C@H](N)[C@@H]2O)CC2O[C@](O)(CC(O)C(O)CCC(O)CC(O)CC(O)CC(=O)O[C@H]1C)CC(O)C2C(=O)O` (stereo partly shown) [nystatin], the solubility-improving effect entry in series [1] is recorded as “a solubility-improving effect was obtained”.

Regarding `CN1CCC[C@@H]1CCO[C@](C)(c1ccccc1)c1ccc(Cl)cc1` [clemastine fumarate], in series [1], the solubility-improving effect entry is “a solubility-improving effect was obtained”.

With `CN(C)/N=N/c1[nH]cnc1C(N)=O` [dacarbazine], in series [1], the solubility-improving effect result was “a solubility-improving effect was obtained”.

With `C[C@H]1[C@H](NC(=O)/C(=N\OC(C)(C)C(=O)O)c2csc(N)n2)C(=O)N1S(=O)(=O)O` [aztreonam], in series [1], the solubility-improving effect entry is recorded as “a solubility-improving effect was obtained”.

As to `CC(=O)SC[C@@H](C)C(=O)N1CCC[C@H]1C(=O)N[C@@H](Cc1ccccc1)C(=O)O` [compound 24, Alacepril], the Dissolved amount in series [2] (water, elution time 3 min) was found to be 526.2 µg/mL; in series [2] (water, elution time 10 min) it was 805.6 µg/mL; in series [2] (water, elution time 30 min), 931.2 µg/mL; in series [2] (water, elution time 120 min), 994.9 µg/mL; in series [2] (water, elution time 360 min) it was 996.5 µg/mL; in series [3] (setting [4]), 2311.1 µg/mL. Besides, in series [3] (setting [5]), the Dissolved amount stood at 2525.0 µg/mL.

As to `C[C@]12CC[C@@H]3c4ccc(O)cc4CC[C@H]3[C@@H]1C[C@@H](O)[C@@H]2O` [estriol], the solubility-improving effect result in series [1] was “a solubility-improving effect was obtained”.

With `Clc1ccc2c(c1)C(N1CCNCC1)=Nc1ccccc1O2` [amoxapine], the solubility-improving effect result in series [1] is given as “a solubility-improving effect was obtained”.

Take `CC(=O)S[C@@H]1CC2=CC(=O)CC[C@]2(C)[C@H]2CC[C@@]3(C)[C@@H](CC[C@@]34CCC(=O)O4)[C@H]12` [compound 34, Spironolactone]: the Dissolved amount in series [2] (Spironolactone, water, elution time 3 min) came out at 29.6 µg/mL; in series [2] (Spironolactone, water, elution time 10 min), 31.9 µg/mL; in series [2] (Spironolactone, water, elution time 30 min) it was 33.7 µg/mL; in series [2] (Spironolactone, water, elution time 120 min) it was 39.7 µg/mL; in series [2] (Spironolactone, water, elution time 360 min) it was 35.2 µg/mL; in series [3] (Spironolactone, 2nd fluid for disintegration test, elution time 3 min), 71.0 µg/mL. For the same molecule, the Dissolved amount in series [3] (Spironolactone, 2nd fluid for disintegration test, elution time 10 min) came out at 85.6 µg/mL; in series [3] (Spironolactone, 2nd fluid for disintegration test, elution time 30 min), 89.3 µg/mL; in series [3] (Spironolactone, 2nd fluid for disintegration test, elution time 120 min) it was 92.0 µg/mL; in series [3] (Spironolactone, 2nd fluid for disintegration test, elution time 360 min), 93.7 µg/mL.

For the molecule `CCC1(c2ccccc2)C(=O)NCNC1=O` [compound 14, Primidone], the Dissolved amount in series [2] (setting [6]) is 180.3 µg/mL; in series [3] (setting [7]) it was 335.2 µg/mL.

On to `N[C@@H](CSCC(=O)O)C(=O)O` [L-carbocysteine], for which, in series [1], the solubility-improving effect result is reported as “a solubility-improving effect was obtained”.

Consider `CC(C)(O/N=C(\C(=O)N[C@@H]1C(=O)N2C(C(=O)[O-])=C(C[n+]3ccccc3)CS[C@H]12)c1csc(N)n1)C(=O)O` [ceftazidime], for which the solubility-improving effect entry in series [1] is reported as “a solubility-improving effect was obtained”.

Regarding `O=[N+]([O-])O[C@H]1CO[C@H]2[C@@H]1OC[C@H]2O[N+](=O)[O-]` [compound 30, Isosorbide Dinitrate], the Dissolved amount in series [2] (water, elution time 30 min) amounted to 3490.4 µg/mL; in series [2] (water, elution time 120 min), 3516.8 µg/mL; in series [3] (setting [8]), 7154.4 µg/mL; in series [3] (setting [5]) it was 7134.1 µg/mL; in series [3] (setting [9]), 7148.8 µg/mL.

As to `COc1ccccc1OCCNCC(O)COc1cccc2[nH]c3ccccc3c12` (stereo not shown) [compound 49, Carvedilol], the Dissolved amount in series [2] (Carvedilol, water, elution time 3 min) was 5.2 µg/mL; in series [2] (Carvedilol, water, elution time 10 min), 8.3 µg/mL; in series [2] (Carvedilol, water, elution time 30 min), 10.0 µg/mL; in series [2] (Carvedilol, water, elution time 120 min), 15.0 µg/mL; in series [2] (Carvedilol, water, elution time 360 min), 16.0 µg/mL; in series [3] (Carvedilol, 2nd fluid for disintegration test, elution time 3 min), 13.9 µg/mL. Moreover, the Dissolved amount in series [3] (Carvedilol, 2nd fluid for disintegration test, elution time 10 min) was 26.3 µg/mL; in series [3] (Carvedilol, 2nd fluid for disintegration test, elution time 30 min) it was 48.6 µg/mL; in series [3] (Carvedilol, 2nd fluid for disintegration test, elution time 120 min), 44.1 µg/mL; in series [3] (Carvedilol, 2nd fluid for disintegration test, elution time 360 min) it was 45.1 µg/mL.

For the molecule `NC(=O)N1c2ccccc2C=Cc2ccccc21` [compound 22, Carbamazepine], the Dissolved amount in series [2] (water, elution time 3 min) turned out to be 291.2 µg/mL; in series [2] (water, elution time 10 min) it was 234.8 µg/mL; in series [2] (water, elution time 30 min) it was 214.3 µg/mL; in series [2] (water, elution time 120 min), 159.5 µg/mL; in series [2] (water, elution time 360 min) it was 153.0 µg/mL; in series [3] (setting [4]), 346.6 µg/mL. The Dissolved amount in series [3] (setting [8]) stood at 352.2 µg/mL; in series [3] (setting [5]), 413.9 µg/mL; in series [3] (2nd fluid for disintegration test, elution time 120 min), 282.1 µg/mL; in series [3] (setting [9]), 199.3 µg/mL.

For `COc1ccc2[nH]c([S+]([O-])Cc3ncc(C)c(OC)c3C)nc2c1` (stereo not shown) [4-1, Omeprazole], the results for the Dissolved amount in series [2] (setting [6]) and in series [3] (setting [7]) were 141.6 µg/mL and 169.9 µg/mL, respectively.
